In ChEMBL document CHEMBL1828590 (J Med Chem, 2011):

Columns and labels:
[1] = molecular target: T1, Polyamine deacetylase HDAC10 (Homo sapiens, UniProt Q969S8)
T1 sequence (Q969S8 whole entry): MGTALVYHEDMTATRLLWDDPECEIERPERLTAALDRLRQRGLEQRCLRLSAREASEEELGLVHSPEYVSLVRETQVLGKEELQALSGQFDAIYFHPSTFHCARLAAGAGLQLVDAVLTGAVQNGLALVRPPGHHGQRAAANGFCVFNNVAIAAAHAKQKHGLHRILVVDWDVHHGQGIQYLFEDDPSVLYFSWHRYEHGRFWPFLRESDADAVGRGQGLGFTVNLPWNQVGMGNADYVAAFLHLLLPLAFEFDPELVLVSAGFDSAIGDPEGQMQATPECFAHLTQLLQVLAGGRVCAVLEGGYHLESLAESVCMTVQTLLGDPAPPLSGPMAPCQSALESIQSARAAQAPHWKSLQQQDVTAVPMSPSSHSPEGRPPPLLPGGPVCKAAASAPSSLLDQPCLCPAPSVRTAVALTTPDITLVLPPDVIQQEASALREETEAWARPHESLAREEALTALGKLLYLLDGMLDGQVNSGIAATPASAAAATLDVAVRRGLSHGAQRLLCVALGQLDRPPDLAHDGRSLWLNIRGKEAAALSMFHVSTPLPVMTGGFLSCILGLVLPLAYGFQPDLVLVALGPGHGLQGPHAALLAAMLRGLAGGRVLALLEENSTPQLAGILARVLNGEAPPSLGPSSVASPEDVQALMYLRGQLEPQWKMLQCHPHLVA
Description: Competitive inhibition of HDAC10 using KI-104 as substrate by fluorescence assay

[2] = molecular target: Histone deacetylase 4 (Homo sapiens, UniProt P56524)
Histone deacetylase 4, sequence (P56524 whole entry): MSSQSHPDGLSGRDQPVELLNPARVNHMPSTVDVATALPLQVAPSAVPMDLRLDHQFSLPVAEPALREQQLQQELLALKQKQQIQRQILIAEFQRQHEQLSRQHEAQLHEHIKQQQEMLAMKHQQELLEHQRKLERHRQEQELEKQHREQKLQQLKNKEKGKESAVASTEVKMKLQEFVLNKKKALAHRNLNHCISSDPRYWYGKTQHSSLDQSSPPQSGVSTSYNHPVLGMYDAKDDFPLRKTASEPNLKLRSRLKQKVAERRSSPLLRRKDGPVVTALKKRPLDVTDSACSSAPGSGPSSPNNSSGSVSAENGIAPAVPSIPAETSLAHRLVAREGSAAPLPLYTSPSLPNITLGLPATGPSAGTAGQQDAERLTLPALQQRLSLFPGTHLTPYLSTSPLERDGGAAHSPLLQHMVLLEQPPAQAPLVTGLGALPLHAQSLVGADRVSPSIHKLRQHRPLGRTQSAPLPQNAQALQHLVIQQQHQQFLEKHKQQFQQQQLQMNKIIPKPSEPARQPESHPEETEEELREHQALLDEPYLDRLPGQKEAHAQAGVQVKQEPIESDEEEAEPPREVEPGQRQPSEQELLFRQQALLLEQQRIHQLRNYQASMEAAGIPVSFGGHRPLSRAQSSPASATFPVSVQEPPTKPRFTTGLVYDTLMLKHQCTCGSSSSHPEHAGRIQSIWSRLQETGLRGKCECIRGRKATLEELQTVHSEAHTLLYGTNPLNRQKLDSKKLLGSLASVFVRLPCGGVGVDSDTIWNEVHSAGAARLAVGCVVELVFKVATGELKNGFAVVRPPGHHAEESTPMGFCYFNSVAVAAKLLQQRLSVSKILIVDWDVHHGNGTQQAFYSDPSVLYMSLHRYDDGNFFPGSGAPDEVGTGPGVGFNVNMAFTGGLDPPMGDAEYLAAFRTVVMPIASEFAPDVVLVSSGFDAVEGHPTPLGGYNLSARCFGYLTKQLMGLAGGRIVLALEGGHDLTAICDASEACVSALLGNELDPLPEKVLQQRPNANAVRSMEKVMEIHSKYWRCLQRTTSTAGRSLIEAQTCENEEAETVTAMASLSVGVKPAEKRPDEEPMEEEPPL
Description: Competitive inhibition of HDAC4 using KI-104 as substrate by fluorescence assay

[3] = tested on: HCT-116; experiment: Antiproliferative activity against human HCT116 cells after 96 hrs by celltiter 96 assay; format: functional, cell-based; settings: HCT-116, 96 h
[4] = molecular target: T2, CYP1A (Homo sapiens, UniProt P04798+P05177); experiment: Inhibition of CYP1A in human liver microsomes by fluorescence assay; format: ADME, Microsome
T2 sequence (P04798 whole entry): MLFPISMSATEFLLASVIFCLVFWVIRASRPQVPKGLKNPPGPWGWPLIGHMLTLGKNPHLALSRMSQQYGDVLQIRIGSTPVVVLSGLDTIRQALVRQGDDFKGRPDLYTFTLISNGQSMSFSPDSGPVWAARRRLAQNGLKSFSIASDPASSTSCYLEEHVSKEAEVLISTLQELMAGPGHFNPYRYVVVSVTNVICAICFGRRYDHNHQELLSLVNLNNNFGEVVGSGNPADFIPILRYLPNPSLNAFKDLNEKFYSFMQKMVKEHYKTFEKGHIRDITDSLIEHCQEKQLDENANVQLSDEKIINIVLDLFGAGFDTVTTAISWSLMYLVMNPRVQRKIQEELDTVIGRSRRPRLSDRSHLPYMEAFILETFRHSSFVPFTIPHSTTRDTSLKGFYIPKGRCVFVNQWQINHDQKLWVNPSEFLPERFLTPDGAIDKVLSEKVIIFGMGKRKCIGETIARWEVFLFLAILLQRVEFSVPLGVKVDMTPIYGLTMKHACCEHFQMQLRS
T2 sequence (P05177 whole entry): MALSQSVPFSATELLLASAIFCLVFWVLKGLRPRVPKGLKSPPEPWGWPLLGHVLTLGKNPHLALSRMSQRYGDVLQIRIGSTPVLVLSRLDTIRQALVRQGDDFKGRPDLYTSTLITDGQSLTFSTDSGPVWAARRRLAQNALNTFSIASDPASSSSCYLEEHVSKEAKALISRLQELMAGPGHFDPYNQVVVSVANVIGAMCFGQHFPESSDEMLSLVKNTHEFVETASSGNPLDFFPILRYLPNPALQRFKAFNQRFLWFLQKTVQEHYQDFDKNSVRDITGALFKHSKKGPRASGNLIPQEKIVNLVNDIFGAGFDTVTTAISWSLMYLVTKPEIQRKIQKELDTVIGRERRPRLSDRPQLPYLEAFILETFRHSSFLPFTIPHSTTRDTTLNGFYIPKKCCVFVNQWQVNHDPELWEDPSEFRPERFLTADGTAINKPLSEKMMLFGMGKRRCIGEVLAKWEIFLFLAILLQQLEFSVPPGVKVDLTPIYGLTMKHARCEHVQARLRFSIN

[5] = molecular target: Histone deacetylase 5 (Homo sapiens, UniProt Q9UQL6)
Histone deacetylase 5, sequence (Q9UQL6 whole entry): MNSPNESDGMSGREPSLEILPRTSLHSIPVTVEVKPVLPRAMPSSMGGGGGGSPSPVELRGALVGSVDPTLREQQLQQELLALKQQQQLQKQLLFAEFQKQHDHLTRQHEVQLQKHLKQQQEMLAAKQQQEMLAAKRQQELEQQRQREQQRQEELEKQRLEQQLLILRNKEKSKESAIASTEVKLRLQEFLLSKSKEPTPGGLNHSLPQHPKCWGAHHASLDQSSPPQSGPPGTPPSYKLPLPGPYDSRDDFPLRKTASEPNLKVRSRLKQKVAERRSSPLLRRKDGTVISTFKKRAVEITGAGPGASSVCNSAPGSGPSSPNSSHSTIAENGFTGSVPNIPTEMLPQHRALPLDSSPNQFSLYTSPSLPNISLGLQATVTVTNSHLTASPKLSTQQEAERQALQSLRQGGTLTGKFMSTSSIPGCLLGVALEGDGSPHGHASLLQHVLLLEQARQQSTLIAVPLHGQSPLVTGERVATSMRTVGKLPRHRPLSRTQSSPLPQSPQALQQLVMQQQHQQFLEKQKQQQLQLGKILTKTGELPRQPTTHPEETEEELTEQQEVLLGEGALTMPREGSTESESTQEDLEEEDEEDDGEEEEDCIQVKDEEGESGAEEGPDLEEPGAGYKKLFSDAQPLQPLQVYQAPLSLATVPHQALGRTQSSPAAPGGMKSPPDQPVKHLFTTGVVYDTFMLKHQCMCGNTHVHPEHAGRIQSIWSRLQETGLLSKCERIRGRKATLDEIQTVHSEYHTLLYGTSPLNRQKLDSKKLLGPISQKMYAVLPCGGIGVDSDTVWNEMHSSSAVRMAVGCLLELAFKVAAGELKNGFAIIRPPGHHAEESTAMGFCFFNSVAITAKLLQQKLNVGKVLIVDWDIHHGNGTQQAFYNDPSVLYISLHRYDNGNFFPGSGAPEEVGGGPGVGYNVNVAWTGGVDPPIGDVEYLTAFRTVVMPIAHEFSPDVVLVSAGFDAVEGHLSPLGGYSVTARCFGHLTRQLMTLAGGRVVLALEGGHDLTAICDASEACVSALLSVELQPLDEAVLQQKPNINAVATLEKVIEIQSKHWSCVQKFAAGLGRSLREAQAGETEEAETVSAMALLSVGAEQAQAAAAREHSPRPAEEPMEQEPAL
Description: Competitive inhibition of HDAC5 using KI-104 as substrate by fluorescence assay

[6] = tested on: COLO 205; experiment: Antiproliferative activity against human COLO205 cells after 96 hrs by celltiter 96 assay; format: functional, cell-based; settings: COLO 205, 96 h
[7] = molecular target: Histone deacetylase 2 (Homo sapiens, UniProt Q92769)
Histone deacetylase 2, sequence (Q92769 whole entry): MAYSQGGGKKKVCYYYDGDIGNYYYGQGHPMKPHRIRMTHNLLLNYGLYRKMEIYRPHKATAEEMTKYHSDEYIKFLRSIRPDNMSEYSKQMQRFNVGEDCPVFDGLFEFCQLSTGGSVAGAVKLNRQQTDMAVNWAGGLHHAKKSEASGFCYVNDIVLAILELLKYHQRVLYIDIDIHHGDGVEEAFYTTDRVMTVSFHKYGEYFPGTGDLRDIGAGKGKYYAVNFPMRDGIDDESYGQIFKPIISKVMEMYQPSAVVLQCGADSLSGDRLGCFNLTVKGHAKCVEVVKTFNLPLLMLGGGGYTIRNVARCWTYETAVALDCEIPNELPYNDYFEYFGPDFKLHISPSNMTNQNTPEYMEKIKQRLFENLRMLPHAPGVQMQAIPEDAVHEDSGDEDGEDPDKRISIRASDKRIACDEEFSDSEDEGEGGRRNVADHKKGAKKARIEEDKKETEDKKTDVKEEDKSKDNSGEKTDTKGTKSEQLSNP
Description: Competitive inhibition of HDAC2 using KI-104 as substrate by fluorescence assay

[8] = molecular target: Histone deacetylase 1 (Homo sapiens, UniProt Q13547)
Histone deacetylase 1, sequence (Q13547 whole entry): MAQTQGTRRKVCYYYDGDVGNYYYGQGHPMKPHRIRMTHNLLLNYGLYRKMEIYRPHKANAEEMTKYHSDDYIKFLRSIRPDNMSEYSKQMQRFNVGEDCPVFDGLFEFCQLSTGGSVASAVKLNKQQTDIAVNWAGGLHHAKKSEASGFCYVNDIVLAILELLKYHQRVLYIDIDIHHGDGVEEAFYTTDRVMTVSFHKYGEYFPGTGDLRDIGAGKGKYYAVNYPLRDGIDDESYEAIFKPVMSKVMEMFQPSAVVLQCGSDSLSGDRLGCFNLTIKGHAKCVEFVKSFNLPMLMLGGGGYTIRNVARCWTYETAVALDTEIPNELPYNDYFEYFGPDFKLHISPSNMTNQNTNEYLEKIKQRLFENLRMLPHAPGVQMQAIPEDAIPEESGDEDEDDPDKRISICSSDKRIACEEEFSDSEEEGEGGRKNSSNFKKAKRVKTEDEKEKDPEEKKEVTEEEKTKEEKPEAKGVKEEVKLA
Description: Competitive inhibition of HDAC1 using KI-104 as substrate by fluorescence assay

[9] = molecular target: Cytochrome P450 2D6 (Homo sapiens, UniProt P10635); experiment: Inhibition of recombinant CYP2D6 after 30 mins by fluorescence assay; format: ADME
Cytochrome P450 2D6, sequence (P10635 whole entry): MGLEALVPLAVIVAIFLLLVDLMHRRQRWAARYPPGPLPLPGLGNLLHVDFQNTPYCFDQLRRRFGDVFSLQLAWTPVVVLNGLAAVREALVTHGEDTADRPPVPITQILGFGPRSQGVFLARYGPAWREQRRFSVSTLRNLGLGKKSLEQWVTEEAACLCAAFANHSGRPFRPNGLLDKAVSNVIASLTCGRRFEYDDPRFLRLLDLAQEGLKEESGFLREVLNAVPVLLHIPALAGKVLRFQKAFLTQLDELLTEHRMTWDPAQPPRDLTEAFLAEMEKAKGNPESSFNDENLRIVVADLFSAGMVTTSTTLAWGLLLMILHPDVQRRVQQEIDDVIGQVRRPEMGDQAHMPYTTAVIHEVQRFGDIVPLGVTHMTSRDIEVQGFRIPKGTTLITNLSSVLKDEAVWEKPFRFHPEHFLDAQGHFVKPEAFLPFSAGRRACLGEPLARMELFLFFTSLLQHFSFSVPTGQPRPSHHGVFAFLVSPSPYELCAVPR

[10] = tested on: PC-3; experiment: Antiproliferative activity against human PC3 cells after 96 hrs by celltiter 96 assay; format: functional, cell-based; settings: PC-3, 96 h
[11] = molecular target: Cytochrome P450 2C19 (Homo sapiens, UniProt P33261); experiment: Inhibition of CYP2C19 in human liver microsomes by fluorescence assay; format: ADME, Microsome
Cytochrome P450 2C19, sequence (P33261 whole entry): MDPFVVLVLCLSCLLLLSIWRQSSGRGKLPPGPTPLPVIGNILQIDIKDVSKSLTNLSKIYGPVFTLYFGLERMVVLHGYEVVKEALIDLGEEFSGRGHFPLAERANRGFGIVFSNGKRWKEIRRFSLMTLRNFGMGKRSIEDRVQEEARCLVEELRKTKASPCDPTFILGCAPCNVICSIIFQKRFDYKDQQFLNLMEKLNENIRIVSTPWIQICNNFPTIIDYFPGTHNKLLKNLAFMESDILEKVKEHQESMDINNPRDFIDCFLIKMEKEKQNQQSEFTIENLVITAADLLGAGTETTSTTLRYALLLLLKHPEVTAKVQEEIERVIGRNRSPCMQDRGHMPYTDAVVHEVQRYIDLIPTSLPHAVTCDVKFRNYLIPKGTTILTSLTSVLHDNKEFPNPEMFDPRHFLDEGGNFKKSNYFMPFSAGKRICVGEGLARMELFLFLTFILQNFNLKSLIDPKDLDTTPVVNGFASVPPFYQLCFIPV

SMILES | Ki [1] [nM] | Ki [2] [nM] | IC50 [3] [nM] | IC50 [4] [nM] | Ki [5] [nM] | IC50 [6] [nM] | Ki [7] [nM] | Ki [8] [nM] | IC50 [9] [nM] | IC50 [10] [nM] | IC50 [11] [nM]
CCCCCCc1nc2cc(/C=C/C(=O)NO)ccc2n1CCN(C)C | 13 | 5.3 | 330 | > 25000 | 9.2 | 330 | 21 | 19 | 3170 | 250 | 10300
CCCCc1nc2cc(/C=C/C(=O)NO)ccc2n1CCN(CC)CC.Cl.Cl | 23 | 16 | 480 | > 25000 | 21 | 560 | 27 | […] | > 10000 | 340 | 5780
CN(C)CC(C)(C)Cn1c(CC(C)(C)C)nc2cc(/C=C/C(=O)NO)ccc21 | 34 | 7.9 | 800 | > 25000 | 11 | 570 | 26 | 24 | > 10000 | 500 | 8100
